Source: US12173309B2, “Compounds for increasing genome editing efficiency” (Max-Planck-Gesellschaft zur Förderung der Wissenschaften …, priority 2017, dated 2024)
Entries after “also recorded” stand apart in the source; their conditions may differ.

Experiments:
K562 cells = test: PGE of HPRT with Cpf1 electroporation in non-pluripotent cells; type: cell-based, human; details: 20 μM NU7026, 0.01 μM TSA, 0.5 μM MLN4924, 5 μM NSC 15520
Method: (§1) Stem cell lines cultured for this project included human 409-B2 hiPSC ([…], Riken BioResource Center) and SC102A1 hiPSC ([…], BioCat GmbH), chimpanzee SandraA ciPSC (female, Mora-Bermúdez et al. 201637), as well as H9 hESC ([…], WiCell Research Institute, Ethics permit AZ 3.04.02/0118). Stem cell lines were grown on Matrigel Matrix (Corning, 35248), and mTeSR1 (StemCell Technologies, 05851) with mTeSR1 supplement (StemCell Technologies, 05852) was used as culture media. Non-pluripotent cell types and their respective media used were: HEK293 (ECACC, 85120602) with DMEM/F-12 (Gibco, 31330-038) supplemented with 10% FBS (SIGMA, F2442) and 1% NEAA (SIGMA, M7145); K562 (ECACC, 89121407) with IMDM (ThermoFisher, 12440053) supplemented with 10% FBS; CD4^+ T (HemaCare, PB04C-1) with RPMI 1640 (ThermoFisher, 11875-093) supplemented with 10% FBS, and activated with Dynabeads Human T-Activator (CD3/CD28) (ThermoFisher, 11131D); CD34^+ progenitor (HemaCare, M34C-1) with StemSpan SFEM (Stemcell, 09600) supplemented with StemSpan CC110 (StemCell, 02697); and HEKa (Gibco, C0055C) with Medium 154 (ThermoFisher, M154500) and Human Keratinocyte Growth Supplement (ThermoFisher, S0015). Cells were grown at 37° C. in a humidified incubator gassed with 5% CO2. Media was replaced every day for stem cells and every second day for non-pluripotent cell lines. Cell cultures were maintained 4-6 days until ˜80% confluency, and subcultured at a 1:6 to 1:10 dilution. Adherent cells were dissociated using EDTA (VWR, 437012C). The media was supplemented with 10 μM Rho-associated protein kinase (ROCK) inhibitor Y-27632 (Calbiochem, 688000) after cell splitting for one day in order to increase cell survival.
(§2) The recombinant A.s. Cpf1 and S.p. Cas9 protein and electroporation enhancer was ordered from IDT (Coralville, USA) and nucleofection was done using the manufacturer's protocol, except for the following alterations. Nucleofection was done using the B-16 program (or U-14 for CD4^+ T cells) of the Nucleofector 2b Device (Lonza) in cuvettes for 100 μl Human Stem Cell nucleofection buffer (Lonza, VVPH-5022), or Human T Cell nucleofection buffer for CD4^+ T cells (Lonza, VPA-1002), and Human CD34 Cell nucleofection buffer for CD34^+ progenitor cells (Lonza, VPA-1003), containing 1 million cells of the respective lines, 78 pmol electroporation enhancer, 160 pmol of each gRNA (crRNA/tracR duplex for Cas9 and crRNA for Cpf1) (320 pmol for double nicking with both gRNAs for one gene), 200 pmol ssODN donor, 252 pmol CRISPR protein. For multiplexing, only gRNAs and single stranded DNA donors were electroporated, since a Cas9n expressing iCRISPR-Cas9n hiPSC line was used. Cells were counted using the Countess Automated Cell Counter (Invitrogen). […]

HEK293 cells = test: as above; type: cell-based, human; details: 20 μM NU7026, 0.01 μM TSA, 0.5 μM MLN4924, 5 μM NSC 15520
Method: as §1, §2

[1] = Solubility of stock in DMSO; type: physicochemical; details: 10 mM stock in DMSO
Method: Commercially available small molecules used in this study were NU7026 (SIGMA, […]), TSA (SIGMA, […]), MLN4924 (Adooq BioScience, A11260), NSC 19630 (Calbiochem, 681647), NSC 15520 (ChemBridge, 6048069), AICAR (SIGMA, A9978), RS-1 (Calbiochem, 553510), Resveratrol (Selleckchem, S1396), SCR7 (XcessBio, M60082-2s), L755507 (TOCRIS, 2197), B02 (SIGMA, SML0364) and STL127685 (Vitas-M). STL127685 is a 4-fluorophenyl analog of the non-commercially available STL127705. Stocks of 15 mM (or 10 mM for NU7026) were made using dimethylsulfoxide (DMSO)(Thermo Scientific, D12345). […] Suitable working solutions for different concentrations were made so that addition of each small molecule accounts for a final concentration of 0.08% (or 0.2% for NU7026) DMSO in the media. Addition of all small molecules would lead to a final concentration of 0.7% DMSO.

| SMILES | effect on PGE efficiency (K562 cells) | effect on PGE efficiency (HEK293 cells) | solubility [1] |
| --- | --- | --- | --- |
| O=c1cc(N2CCOCC2)oc2c1ccc1ccccc12 [NU7026] | strongly increases; also recorded: increases | strongly increases; also recorded: increases | limiting factor |
| NS(=O)(=O)OC[C@@H]1C[C@@H](n2ccc3c(N[C@H]4CCc5ccccc54)ncnc32)C[C@@H]1O [MLN4924, Pevonedistat] | clear disruptive effect | clear disruptive effect |  |
